Laboratory results taken from ChEMBL document CHEMBL1909046, “DrugMatrix in vitro pharmacology data”.

Experiments:
[1] = target: T1, Neuropeptide Y receptor type 1 (Homo sapiens, UniProt P25929); type: cell membranes, Membrane; conditions: sk-n-mc; note: in other assays of this panel Not Active means under 50% inhibition at 10 µM
T1 sequence (P25929 whole entry): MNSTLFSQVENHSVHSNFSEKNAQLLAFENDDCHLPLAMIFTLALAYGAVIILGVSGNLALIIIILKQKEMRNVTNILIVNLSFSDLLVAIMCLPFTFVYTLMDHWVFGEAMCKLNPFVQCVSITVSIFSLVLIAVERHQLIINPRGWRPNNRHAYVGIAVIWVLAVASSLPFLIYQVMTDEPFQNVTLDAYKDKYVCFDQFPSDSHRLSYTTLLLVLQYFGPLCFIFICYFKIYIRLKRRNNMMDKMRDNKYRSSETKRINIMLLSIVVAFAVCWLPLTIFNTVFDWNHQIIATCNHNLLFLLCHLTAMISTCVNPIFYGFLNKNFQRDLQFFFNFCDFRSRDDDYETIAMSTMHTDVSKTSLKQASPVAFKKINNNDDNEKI

[2] = target: C-C chemokine receptor type 2 (Homo sapiens, UniProt P41597); type: cell membranes, CHO-K1, Membrane; conditions: cho-k1; note: in other assays of this panel Not Active means under 50% inhibition at 10 µM
Chain of C-C chemokine receptor type 2 (P41597 whole entry): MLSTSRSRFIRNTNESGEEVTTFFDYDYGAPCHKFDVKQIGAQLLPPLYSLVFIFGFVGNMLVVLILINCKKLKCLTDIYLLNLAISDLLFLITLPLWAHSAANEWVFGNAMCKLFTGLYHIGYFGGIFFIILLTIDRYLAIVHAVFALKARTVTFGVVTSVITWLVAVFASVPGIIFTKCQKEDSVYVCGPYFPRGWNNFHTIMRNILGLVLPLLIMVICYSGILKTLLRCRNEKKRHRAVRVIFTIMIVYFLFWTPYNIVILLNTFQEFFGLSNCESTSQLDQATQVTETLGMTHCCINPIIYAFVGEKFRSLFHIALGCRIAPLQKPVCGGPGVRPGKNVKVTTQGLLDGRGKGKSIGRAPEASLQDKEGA

Cytochrome P450 2C19 = Cytochrome P450 2C19 (Homo sapiens, UniProt P33261); conditions: bti-tn-5b1-4; note: in other assays of this panel Not Active means under 50% inhibition at 10 µM
Chain of Cytochrome P450 2C19 (P33261 whole entry): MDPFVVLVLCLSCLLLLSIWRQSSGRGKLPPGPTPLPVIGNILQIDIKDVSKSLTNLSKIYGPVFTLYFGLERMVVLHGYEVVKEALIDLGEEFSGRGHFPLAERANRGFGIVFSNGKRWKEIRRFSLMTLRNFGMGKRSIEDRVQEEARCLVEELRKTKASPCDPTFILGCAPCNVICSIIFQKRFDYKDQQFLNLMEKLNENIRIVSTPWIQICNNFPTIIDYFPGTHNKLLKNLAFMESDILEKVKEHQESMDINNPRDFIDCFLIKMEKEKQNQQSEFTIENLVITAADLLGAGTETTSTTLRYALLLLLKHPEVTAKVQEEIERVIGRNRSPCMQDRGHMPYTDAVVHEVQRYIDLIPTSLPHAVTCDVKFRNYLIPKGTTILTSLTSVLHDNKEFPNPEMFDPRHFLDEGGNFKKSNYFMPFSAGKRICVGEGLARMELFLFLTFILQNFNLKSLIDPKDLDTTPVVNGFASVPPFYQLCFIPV

[3] = target: T2, Alpha-1D adrenergic receptor (Homo sapiens, UniProt P25100); type: cell membranes, HEK293, Membrane; conditions: for Ki: read-out: Ki; for all read-outs here: in other assays of this panel Not Active means under 50% inhibition at 10 µM
T2 sequence (P25100 whole entry): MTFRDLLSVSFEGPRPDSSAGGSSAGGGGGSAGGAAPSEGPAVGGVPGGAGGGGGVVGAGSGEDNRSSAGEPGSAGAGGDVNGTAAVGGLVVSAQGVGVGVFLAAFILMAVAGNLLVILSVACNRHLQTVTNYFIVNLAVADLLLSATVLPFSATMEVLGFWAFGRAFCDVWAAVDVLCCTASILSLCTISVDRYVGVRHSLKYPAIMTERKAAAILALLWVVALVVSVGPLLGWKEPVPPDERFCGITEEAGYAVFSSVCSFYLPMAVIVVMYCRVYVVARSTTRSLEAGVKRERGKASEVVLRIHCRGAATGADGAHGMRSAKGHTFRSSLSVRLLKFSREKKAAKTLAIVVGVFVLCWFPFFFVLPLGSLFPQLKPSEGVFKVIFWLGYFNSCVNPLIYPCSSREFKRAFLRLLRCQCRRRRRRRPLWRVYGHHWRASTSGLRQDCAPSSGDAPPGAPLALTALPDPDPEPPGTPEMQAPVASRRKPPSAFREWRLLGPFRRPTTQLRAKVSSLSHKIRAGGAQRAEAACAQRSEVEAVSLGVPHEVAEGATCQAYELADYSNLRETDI

Progesterone receptor = target: T3, Progesterone receptor (Bos taurus, UniProt Q690N0); assay: DRUGMATRIX: Progesterone radioligand binding (ligand: [3H] R-5020); type: tissue-based, Uterus; conditions: Not Active = under 50% inhibition at 10 µM
T3 sequence (Q690N0 whole entry): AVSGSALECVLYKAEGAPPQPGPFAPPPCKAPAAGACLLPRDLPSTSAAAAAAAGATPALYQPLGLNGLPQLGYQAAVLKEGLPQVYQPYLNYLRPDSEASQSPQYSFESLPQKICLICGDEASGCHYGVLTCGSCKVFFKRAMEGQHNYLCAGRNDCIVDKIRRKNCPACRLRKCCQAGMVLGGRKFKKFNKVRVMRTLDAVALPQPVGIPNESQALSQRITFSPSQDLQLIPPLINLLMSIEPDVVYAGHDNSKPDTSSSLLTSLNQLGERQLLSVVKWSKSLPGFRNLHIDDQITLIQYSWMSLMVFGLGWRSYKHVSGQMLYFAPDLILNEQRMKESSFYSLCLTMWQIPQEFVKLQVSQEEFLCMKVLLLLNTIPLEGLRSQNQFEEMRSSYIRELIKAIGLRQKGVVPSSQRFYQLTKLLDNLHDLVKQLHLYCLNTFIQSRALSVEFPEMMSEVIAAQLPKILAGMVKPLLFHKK

Vasopressin V1a receptor = Vasopressin V1a receptor (Homo sapiens, UniProt P37288); type: cell membranes, Membrane; conditions: hek293; note: in other assays of this panel Not Active means under 50% inhibition at 10 µM
Chain of Vasopressin V1a receptor (P37288 whole entry): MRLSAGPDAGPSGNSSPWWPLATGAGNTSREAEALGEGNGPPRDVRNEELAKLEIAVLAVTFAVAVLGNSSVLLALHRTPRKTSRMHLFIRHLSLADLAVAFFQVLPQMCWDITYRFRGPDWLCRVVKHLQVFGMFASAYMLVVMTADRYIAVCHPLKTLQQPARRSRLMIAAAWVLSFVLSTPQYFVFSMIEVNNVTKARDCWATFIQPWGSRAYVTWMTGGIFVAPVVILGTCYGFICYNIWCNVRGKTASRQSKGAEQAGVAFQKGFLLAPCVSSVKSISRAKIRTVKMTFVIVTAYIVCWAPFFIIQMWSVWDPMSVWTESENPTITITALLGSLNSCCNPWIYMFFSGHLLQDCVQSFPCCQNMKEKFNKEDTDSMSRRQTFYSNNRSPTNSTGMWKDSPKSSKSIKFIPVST

[4] = target: Mitogen-activated protein kinase 1 (Homo sapiens, UniProt P28482); assay: DRUGMATRIX: Protein Serine/Threonine Kinase, ERK2 enzyme inhibition (substrate: Myelin Basic Protein); set-up: species or system Escherichia coli; conditions: Not Active = under 50% inhibition at 10 µM
Chain of Mitogen-activated protein kinase 1 (P28482 whole entry): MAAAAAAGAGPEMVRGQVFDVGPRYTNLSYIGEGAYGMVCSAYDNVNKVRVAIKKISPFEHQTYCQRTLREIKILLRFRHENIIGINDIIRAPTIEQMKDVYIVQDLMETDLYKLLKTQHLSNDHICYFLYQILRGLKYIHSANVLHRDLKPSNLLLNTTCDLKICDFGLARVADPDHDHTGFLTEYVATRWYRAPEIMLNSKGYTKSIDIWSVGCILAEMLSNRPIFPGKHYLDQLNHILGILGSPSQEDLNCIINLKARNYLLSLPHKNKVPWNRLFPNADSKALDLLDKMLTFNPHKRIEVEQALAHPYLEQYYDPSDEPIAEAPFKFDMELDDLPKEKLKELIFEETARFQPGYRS

[5] = target: Prostaglandin G/H synthase 1 (Homo sapiens, UniProt P23219); assay: biochemical; type: tissue-based, Platelet; conditions: platelet
Chain of Prostaglandin G/H synthase 1 (P23219 whole entry): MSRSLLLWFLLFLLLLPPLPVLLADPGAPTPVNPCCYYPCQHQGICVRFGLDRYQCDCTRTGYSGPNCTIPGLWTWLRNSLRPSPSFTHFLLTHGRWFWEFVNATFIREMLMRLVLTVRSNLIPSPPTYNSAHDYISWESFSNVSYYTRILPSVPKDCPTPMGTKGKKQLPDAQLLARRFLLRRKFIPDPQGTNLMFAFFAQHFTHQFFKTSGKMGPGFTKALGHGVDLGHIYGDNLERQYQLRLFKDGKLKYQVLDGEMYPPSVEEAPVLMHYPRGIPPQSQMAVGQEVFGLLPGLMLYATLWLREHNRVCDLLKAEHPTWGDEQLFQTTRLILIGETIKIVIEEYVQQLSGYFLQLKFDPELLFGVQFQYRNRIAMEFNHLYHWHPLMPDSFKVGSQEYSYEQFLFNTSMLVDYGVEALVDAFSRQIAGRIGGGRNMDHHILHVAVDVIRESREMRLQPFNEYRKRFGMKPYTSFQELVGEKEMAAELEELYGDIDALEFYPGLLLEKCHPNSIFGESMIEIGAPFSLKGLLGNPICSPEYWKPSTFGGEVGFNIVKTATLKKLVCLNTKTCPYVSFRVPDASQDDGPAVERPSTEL

[6] = DRUGMATRIX: Calcium Channel Type L, Dihydropyridine radioligand binding (ligand: [3H] Nitrendipine); type: cell membranes, Rattus norvegicus, Wistar, Cerebral cortex, Membrane; conditions: Not Active = under 50% inhibition at 10 µM
[7] = DRUGMATRIX: Calcium Channel Type L, Phenylalkylamine radioligand binding (ligand: [3H] (-)-Desmethoxyverapamil (D-888)); type: cell membranes, Rattus norvegicus, Wistar, Brain, Membrane; conditions: Not Active = under 50% inhibition at 10 µM
[8] = DRUGMATRIX: Atrial Natriuretic Factor (ANF) radioligand binding (ligand: [125I] ANF (rat)); type: cell membranes, Cavia porcellus, Dunkin-Hartley, Adrenal gland, Membrane; conditions: Not Active = under 50% inhibition at 10 µM
[9] = target: T4, 5-hydroxytryptamine receptor 2C (Homo sapiens, UniProt P28335); assay: DRUGMATRIX: Serotonin (5-Hydroxytryptamine) 5-HT2C radioligand binding (ligand: [3H] Mesulergine); type: cell membranes, CHO-K1, Membrane; conditions: cho-k1; Not Active = under 50% inhibition at 10 µM
T4 sequence (P28335 whole entry): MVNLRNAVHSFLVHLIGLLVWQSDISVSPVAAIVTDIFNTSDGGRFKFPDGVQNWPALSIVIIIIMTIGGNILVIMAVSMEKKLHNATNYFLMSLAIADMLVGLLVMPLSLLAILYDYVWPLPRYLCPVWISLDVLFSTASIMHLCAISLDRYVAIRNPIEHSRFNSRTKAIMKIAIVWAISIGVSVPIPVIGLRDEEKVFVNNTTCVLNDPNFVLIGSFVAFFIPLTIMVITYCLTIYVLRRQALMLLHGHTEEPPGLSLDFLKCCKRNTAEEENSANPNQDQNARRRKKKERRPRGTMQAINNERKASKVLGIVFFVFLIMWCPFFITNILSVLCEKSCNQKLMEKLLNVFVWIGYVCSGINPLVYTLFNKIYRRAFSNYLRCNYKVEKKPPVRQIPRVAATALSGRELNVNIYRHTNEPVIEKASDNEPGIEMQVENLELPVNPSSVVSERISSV

[10] = target: Sigma non-opioid intracellular receptor 1 (Homo sapiens, UniProt Q99720); assay: DRUGMATRIX: Sigma1 radioligand binding (ligand: [3H] Haloperidol); type: cell membranes, Jurkat, Membrane; conditions: Not Active = under 50% inhibition at 10 µM
Chain of Sigma non-opioid intracellular receptor 1 (Q99720 whole entry): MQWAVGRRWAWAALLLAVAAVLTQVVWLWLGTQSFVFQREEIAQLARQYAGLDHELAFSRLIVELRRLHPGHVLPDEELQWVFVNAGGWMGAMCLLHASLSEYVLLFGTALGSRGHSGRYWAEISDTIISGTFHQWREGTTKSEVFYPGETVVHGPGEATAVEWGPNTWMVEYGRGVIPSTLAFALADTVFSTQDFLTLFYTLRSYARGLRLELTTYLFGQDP

Row | Structure (SMILES) | IC50 [1] | IC50 [2] | IC50 (Cytochrome P450 2C19) | Ki (Cytochrome P450 2C19) | IC50 ([3]; hek293) | IC50 (Progesterone receptor) | IC50 (Vasopressin V1a receptor) | IC50 [4] | IC50 [5] | IC50 [6] | Ki [6] | IC50 [7] | Ki [7] | IC50 [8] | Ki [8] | IC50 [9] | IC50 ([10]; jurkat) | further results
1 | O=c1cc(-c2ccccc2)oc2c1ccc1ccccc12 [ALPHA-NAPHTHOFLAVONE] | Not Active | Not Active | Not Active | Not Active | Not Active | Not Active | Not Active | Not Active | Not Active | Not Active | Not Active | Not Active | Not Active | Not Active | Not Active | Not Active |  | 
2 | O=C1OCCN1/N=C/c1ccc([N+](=O)[O-])o1 [FURAZOLIDONE] | Not Active | Not Active |  |  | Not Active | Not Active | Not Active | Not Active | Not Active | Not Active | Not Active | Not Active | Not Active | Not Active | Not Active | Not Active | Not Active | 
3 | CNCCC=C1c2ccccc2CCc2ccccc21 [NORTRIPTYLINE] | Not Active | Not Active |  |  |  | Not Active | Not Active | Not Active | Not Active | Not Active | Not Active |  |  | Not Active | Not Active |  | Not Active | IC50 ([3]; read-out: IC50): 273 nM; Ki [3]: 134 nM; IC50 ([7]; read-out: IC50): 1890 nM; Ki ([7]; read-out: Ki): 1840 nM
4 | Nc1nc(=O)[nH]cc1F [FLUCYTOSINE] | Not Active | Not Active |  |  | Not Active | Not Active | Not Active | Not Active | Not Active | Not Active | Not Active | Not Active | Not Active | Not Active | Not Active | Not Active | Not Active | 
5 | CCCCOC(=O)c1ccc(N)cc1 [BUTAMBEN] | Not Active | Not Active |  |  | Not Active | Not Active | Not Active | Not Active | Not Active | Not Active | Not Active | Not Active | Not Active | Not Active | Not Active | Not Active | Not Active | 
6 | Cn1cnc([N+](=O)[O-])c1Sc1ncnc2nc[nH]c12 [AZATHIOPRINE] | Not Active | Not Active |  |  | Not Active | Not Active | Not Active | Not Active | Not Active | Not Active | Not Active | Not Active | Not Active | Not Active | Not Active | Not Active | Not Active | 
7 | CC(C)NC[C@H](O)COc1cccc2[nH]ccc12 | Not Active | Not Active |  |  | Not Active |  | Not Active | Not Active | Not Active | Not Active | Not Active | Not Active | Not Active | Not Active | Not Active | Not Active | Not Active | 
8 | CN1C(C(=O)Nc2ccccn2)=C(O)c2ccccc2S1(=O)=O [PIROXICAM] | Not Active | Not Active | Not Active | Not Active | Not Active | Not Active | Not Active | Not Active |  | Not Active | Not Active | Not Active | Not Active | Not Active | Not Active | Not Active | Not Active | 
9 | CN(C)CCCC1(c2ccc(F)cc2)OCc2cc(C#N)ccc21 (stereo not given) [CITALOPRAM] | Not Active | Not Active | Not Active | Not Active |  | Not Active | Not Active | Not Active | Not Active | Not Active | Not Active |  |  | Not Active | Not Active |  |  | IC50 ([10]; read-out: IC50): 398 nM; Ki ([10]; read-out: Ki): 167 nM; IC50 ([3]; read-out: IC50): 3290 nM; Ki [3]: 1620 nM; IC50 ([7]; read-out: IC50): 1020 nM; Ki ([7]; read-out: Ki): 996 nM
10 | CCc1cccc2c3c([nH]c12)C(CC)(CC(=O)O)OCC3 (stereo not given) [ETODOLAC] | Not Active | Not Active | Not Active | Not Active | Not Active | Not Active | Not Active | Not Active |  | Not Active | Not Active | Not Active | Not Active | Not Active | Not Active | Not Active | Not Active | 
